In article PMC5880945, “D-Arg^0-Bradykinin-Arg-Arg, a Latent Vasoactive Bradykinin B2 Receptor Agonist Metabolically Activated by Carboxypeptidases” (Frontiers in Pharmacology, 2018):
Entries after “also recorded” stand apart in the source; their conditions may differ. Square brackets hold non-standard residues; d marks the D form. Ends that are not written are not given here.

Tests used:
[1] = test system: human ACE-mCherry fusion protein; assay: Competition of a fluorogenic ACE substrate by synthetic kinins (recombinant ACE-mCherry); format: biochemical; settings: enalaprilat 1 μM; 15 min, 37°C; fluorescence
Experimental: The source of enzyme was whole HEK 293a cells grown in 24-well plates and transfected as described with a vector coding for the human ACE-mCherry fusion protein, an active enzyme ([Charest-Morin and Marceau, 2016]). The culture medium was removed from cell wells, which were rinsed twice with PBS. The fluorogenic substrate (final concentration 20 μM), and, optionally, a competitor (BK, r-BK, or r-BK-RR in variable concentrations, or the ACE inhibitor enalaprilat 1 μM) were added in 250 μl PBS in each well; the plates were then incubated for 15 min at 37°C. At this point, the well supernatants were transferred in Eppendorf tubes, centrifuged 30 s at 12500 rpm to remove debris and 100 μl of this fluid transferred in wells of 96-well plate (black background) to read the fluorescence (excitation 320 nm, emission 420 nm) using a TECAN Infinite® 200 PRO microplate reader. Results were expressed as the percent of the fluorescence in wells containing ACE-mCherry and the substrate without competitors. Controls included mock-transfected cells and enalaprilat-treated cells.

anesthetized rats [2] = assay: In vivo hemodynamics in anesthetized rats pretreated with icatibant or peptidase inhibitors; parameters: species or system male Sprague-Dawley rats; settings: for Mean arterial blood pressure, basal after pre-treatment / Heart rate, basal after pre-treatment: 15 min after i.v. pretreatment, mean ± SEM, n = 10 icatibant, 9 enalaprilat, 8 Plummer’s, 10 combination; for Mean arterial blood pressure, basal after pre-treatment: untreated control 93.2 ± 3.3 (n = 13), ANOVA N.S.; for Heart rate, basal after pre-treatment: untreated control 352 ± 10 (n = 13), ANOVA P < 0.001, * icatibant, ** others
Experimental: All surgical and experimental procedures were reviewed and approved by the Animal Care and Handling Committee of Laval University, in accordance with the Canadian Council on Animal Care. Experiments were performed on male Sprague-Dawley rats (300–375 g) purchased from Charles River Laboratories (St-Constant, QC, Canada). The rats were housed in a light-controlled (12:12-h light-dark cycle (lights on at 0600)) and temperature-regulated room (22 ± 1°C). Animals had free access to normal chow diet and tap water. They were allowed to acclimate to their environmental conditions for 1 week prior to being studied. At the end of the acclimation period, the rats were anesthetised with sodium pentobarbital (50 mg kg^-1, i.p., supplemented as required) and had one catheter implanted into the right jugular vein [for intravenous (i.v.) injection] and one into the left femoral artery [for direct and continuous measurement of blood pressure and heart rate as previously described ([Jean et al., 2016])]. Experiments started at least 20 min following the end of surgery in anesthetised rats.
The mechanism subserving the cardiovascular responses to random i.v. injections of r-BK and r-BK-RR at the dose of 1.6 μg/kg, was evaluated in rats pretreated with specific antagonists. In these experiments, the rats were separated in four groups depending on the antagonist tested, and the cardiovascular responses to the peptides agonists were compared with those elicited in the untreated control group of rats. In the first group of treated rats, the long acting and selective B2R antagonist, icatibant (Hoe 140) (D-Arg-[Hyp^3, Thi^5, D-Tic^7, Oic^8]) bradykinin ([Hock et al., 1991]; [Wirth et al., 1991]; [Rhaleb et al., 1992]; [Marceau et al., 1994]) was intravenously administered as bolus (75 μg/kg, 0.1 ml) following a 10 min period of baseline measurements of heart rate and blood pressure. Fifteen minutes later, recording changes in blood pressure and heart rate elicited by i.v. injection of peptide vehicle (saline-BSA 0.1%) followed by random injections of r-BK and r-BK-RR, were made as described above. The next peptide was administered once all recorded cardiovascular parameters had returned to baseline after the previous injection. Further experiments were made in a second group of rats pretreated with the ACE inhibitor, enalaprilat. In these experiments, enalaprilat was intravenously administered as bolus ([…], 0.1 ml) 15 min before the i.v. injections of peptide vehicle and both customized peptides, as above. Further experiments were also carried out in rats pretreated with the Plummer’s inhibitor (mercaptomethyl-3-guanidinoethylthiopropanoic acid) a high affinity inhibitor of arginine carboxypeptidases that is an arginine analog ([Plummer and Ryan, 1981]). The inhibitor was intravenously administered as bolus (0.75 mg/kg, 0.1 ml) followed 15 min later by the i.v. injections of saline-BSA 0.1%, and then r-BK and -r-BK-RR (1.6 μg/kg) in random order. A fourth group of rats was pretreated with a combined i.v. injection of enalaprilat (0.1 mg/kg) and the Plummer’s inhibitor (0.75 mg/kg) 15 min before the randomized i.v. injections of both customized peptides, as above. The doses of different inhibitors were based on preliminary experiments and from previous studies performed by us and others ([Ishida et al., 1989]; [Wirth et al., 1991]; [Muto et al., 2003]; [Jean et al., 2016]). At the end of the experiments the rats were euthanized with an overdose of sodium pentobarbital (240 mg/kg, i.v.).
Results are presented as means ± SEM. Radioligand binding data were fitted by non-linear regression to a one-site competition equation using a least-square method (Prism 5.0, GraphPad Software Inc., San Diego, CA, United States) and IC50 values calculated from this procedure. […]

[3] = test system: ACE (two separate catalytic sites); settings: ref Araujo et al., 2000; cited from earlier work
Text: The source of enzyme was whole HEK 293a cells grown in 24-well plates and transfected as described with a vector coding for the human ACE-mCherry fusion protein, an active enzyme ([Charest-Morin an ...

anesthetized rats [4] = test system: anesthetized rats; parameters: method as in 2 sources, one per row (each row's own in cited_ref): ref Jean et al., 2016; Charest-Morin et al., 2017 ||| ref Jean et al., 2016; settings: intravenous boluses; ref Jean et al., 2016; Charest-Morin et al., 2017; cited from earlier work
[5] = test system: GFP-tagged rabbit B2R (B2R-GFP); assay: B2R-GFP endocytosis and recycling, epifluorescence microscopy, HEK 293 cells; format: cell-based; settings: 30 min vs 3 h of stimulation
[6] = molecular target: T1, endogenous B2R of the human isolated umbilical vein (human (endogenous in umbilical vein), UniProt P30411 1-391); assay: cell-based or functional assay
T1 sequence (looked up): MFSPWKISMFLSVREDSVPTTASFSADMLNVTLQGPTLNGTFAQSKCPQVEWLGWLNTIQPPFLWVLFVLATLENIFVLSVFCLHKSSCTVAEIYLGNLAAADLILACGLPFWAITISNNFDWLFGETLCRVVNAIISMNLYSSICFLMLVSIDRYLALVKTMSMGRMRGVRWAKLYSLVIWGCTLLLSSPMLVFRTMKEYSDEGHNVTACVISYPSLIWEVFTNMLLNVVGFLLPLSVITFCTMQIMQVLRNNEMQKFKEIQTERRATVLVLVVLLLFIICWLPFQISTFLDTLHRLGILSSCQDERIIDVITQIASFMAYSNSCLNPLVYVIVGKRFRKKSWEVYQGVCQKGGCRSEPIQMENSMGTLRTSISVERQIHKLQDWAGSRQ

[7] = molecular target: T2, myc-tagged rat B2R construction (rat, UniProt P25023 1-396); assay: radioligand binding; competition of the binding of 3 nM [^3H]BK to adherent intact HEK 293 cells stably expressing myc-tagged rat B2R by unlabeled peptides; 0°C; peptidase inhibitors including captopril and PMSF; one-site competition fit; settings: one partner purified
T2 construct: bradykinin B2 receptor, rat; also called rat myc-B2R; rat recombinant myc-B2R; source: HEK 293 cells stably expressing the construction, adherent intact cells
T2 sequence (looked up): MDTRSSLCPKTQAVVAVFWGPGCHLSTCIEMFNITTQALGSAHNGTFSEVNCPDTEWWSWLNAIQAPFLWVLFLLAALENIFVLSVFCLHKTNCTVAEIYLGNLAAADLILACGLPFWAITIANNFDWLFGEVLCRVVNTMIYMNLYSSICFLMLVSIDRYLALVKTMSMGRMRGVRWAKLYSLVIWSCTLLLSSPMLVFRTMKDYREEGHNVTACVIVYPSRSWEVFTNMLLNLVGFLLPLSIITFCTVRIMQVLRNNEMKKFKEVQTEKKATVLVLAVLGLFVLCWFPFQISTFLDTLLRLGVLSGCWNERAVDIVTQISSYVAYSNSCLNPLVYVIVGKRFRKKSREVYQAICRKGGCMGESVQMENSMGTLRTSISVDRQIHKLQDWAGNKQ

## C[C@H](N[C@@H](CCc1ccccc1)C(=O)O)C(=O)N1CCC[C@H]1C(=O)O [Enalaprilat, enalaprilat, reference compound]
[1]
  hydrolysis of ACE substrate by ACE-expressing cells treated with inhibitor, in words: did not catalyze the reaction
Anesthetized rats [2]
  Mean arterial blood pressure, basal after pre-treatment: 89.8 ± 4.1
  Heart rate, basal after pre-treatment: 412 ± 11^∗∗

## N=C(N)NCCSCC(CS)C(=O)O (stereo not shown) [Plummer’s inhibitor, mercaptomethyl-3-guanidinoethylthiopropanoic acid, reference compound]
Anesthetized rats [2]
  Mean arterial blood pressure, basal after pre-treatment: 90.3 ± 3.6
  Heart rate, basal after pre-treatment: 407 ± 10^∗∗

## Abz-Phe-Arg-Lys(Dnp)-Pro-OH [internally quenched fluorogenic ACE substrate]
[3]
  affinity for the two catalytic sites of ACE, in words: approximately equal low micromolar affinity

## D-Arg-[Hyp3,Thi5,D-Tic7,Oic8]bradykinin [Icatibant, reference compound]
Anesthetized rats [2]
  Mean arterial blood pressure, basal after pre-treatment: 93.7 ± 3.3
  Heart rate, basal after pre-treatment: 396 ± 10^∗
Anesthetized rats [2]; icatibant i.v. pretreatment, r-BK or r-BK-RR 1.6 μg/kg i.v.
  inhibition of hypotensive effects of r-BK and r-BK-RR, in words: their effects were inhibited by icatibant

## D-Arg-[Hyp^3, Igl^5, Oic^7, Igl^8]-BK [B-9972, reference compound]
Anesthetized rats [4]
  duration of action vs BK in vivo, in words: not remarkably more longer acting than BK in vivo
[5]
  persistence of B2R-GFP endocytosis, in words: persistent morphologic response; also recorded: prolonged endocytosis of B2R-GFP

B1: D-Arg^0-BK (peptide)
peptide: [dR]RPPGFSPFR
notes: D-Arg^0, N-terminal extension (a D-residue); bradykinin, whole nonapeptide; also called r-BK; D-Arg^0-bradykinin; source: synthetic peptide (CanPeptide, Inc., solid-phase, ≥98.3% pure)
[6]
  contractile EC50, human isolated umbilical vein, control: 0.0624 µM
  contractile EC50, human isolated umbilical vein, with Plummer’s inhibitor 1 μM: 0.0684 µM
  contractile EC50, human isolated umbilical vein, with enalaprilat 1 μM: 0.0616 µM
  contractile EC50, human isolated umbilical vein, with enalaprilat 1 μM + Plummer’s inhibitor 1 μM: 0.0451 µM
[7]
  IC50: 0.0133 µM

B2: D-Arg^0-BK-Arg-Arg (peptide)
peptide: [dR]RPPGFSPFRRR
notes: D-Arg^0, N-terminal extension (a D-residue); bradykinin, whole nonapeptide; Arg-Arg, C-terminal extension; also called r-BK-RR; D-Arg^0-Bradykinin-Arg-Arg; source: synthetic peptide (CanPeptide, Inc., solid-phase, ≥98.3% pure)
[6]
  contractile EC50, human isolated umbilical vein, with enalaprilat 1 μM (ACE blockade): 1.51 µM
  contractile EC50, human isolated umbilical vein, with enalaprilat 1 μM + Plummer’s inhibitor 1 μM (ACE blockade): 1.76 µM
[7]
  IC50: 1.05 µM
